For data set [1], the system named is PC-3 prostate cancer cells. Briefly: Cell viability assay (CellTiter-Glo) in PC-3 cells. The data set is classed as cell-based, human. The following applies: for Suppression of viability of PC-3 cells: 1 µM, 48 h (Figure S1); for CC50: Homo sapiens, PC-3 cells, 48 h treatment, read-out: PC-3 cell viability, lethal concentration 50 (LC50). How it is done:
(§1) Human prostate cancer PC-3, […], and LNCaP cells were obtained from Riken Bioresource Center (Tokyo, Japan) and cultured in Dulbecco’s modified Eagle medium-low glucose (DMEM; Sigma-Aldrich, St. Louis, MO, USA), supplemented with 10% fetal bovine serum (FBS; Biowest SAS, Nuaille, France) and 1% penicillin-streptomycin (Fujifilm Wako Pure Chemicals) at 37 °C in a humidified 5% CO2 atmosphere. For screening, the cells were seeded (3 × 10^3 cells/well) in a 96-well plate and cultured for 24 h in DMEM supplemented with 1% FBS. The tested compounds were then administered to the cells. Forty-eight hours after administration, cell viability was measured using the CellTiter-Glo luminescent cell viability assay (Promega, Madison WI, USA) according to the manufacturer’s protocol. Luminescence signals were measured using a Victor2 microplate reader (PerkinElmer, Boston, MA, USA). For the negative control (0 μM jegosaponin A and B), 0.1% dimethyl sulfoxide (vehicle) was used. Cell viability was calculated as the ratio of the negative controls. The assay was performed in triplicate.

Data set [2] concerns DU145. Kind of data set: Cell viability assay (CellTiter-Glo) in DU145 cells. The following applies: 1 µM, 48 h (Figure S1). The format is cell-based, human. How it is done: as §1
Data set [3] deals with LNCaP. Kind of data set: Cell viability assay (CellTiter-Glo) in LNCaP cells. The format is cell-based, human. Conditions: 1 µM, 48 h (Figure S1). As to the method:
as §1

Data set [4] is described as follows: Zebrafish embryo acute toxicity test (ZFET). On the set-up: species or system zebrafish (Danio rerio). The following applies: AB, in vivo, other: embryos exposed in 6-well plates; for LC50 at 120 h: embryos exposed from 5 hpf to 120 hpf; for LC50 at 24 h: embryos exposed from 5 hpf, 24 h after administration (to 24 hpf). How it is done: Zebrafish AB strain (Zebrafish International Resource Center, Eugene, OR, USA) was maintained in our facility according to standard operational guidelines. All animal procedures were performed by the Ethics Committee of Mie University, according to the Japanese Animal Welfare Regulation ‘Act on Welfare and Management of Animals’ (Ministry of Environment of Japan), and complied with international guidelines.
ZFETs were performed as previously reported. In brief, blastula stage embryos (approximately 5 h post fertilisation (hpf)) were transferred into 6-well plates and exposed to jegosaponin A or B at 28 °C until 120 hpf. Each group contained nine fish in three triplicates. The number of surviving embryos was counted every 24 h.

Data set [5] relates to sheep red blood cells. Briefly: Haemolysis assay. The format is cell-based. Conditions: Ovis aries, Erythrocyte; RBC, 1 h (Table 1); read-out: RBC Hemolysis HD50 (1 h). How it is done: A haemolysis assay was performed as previously reported. Five millilitres of sheep defibrinated blood (Nippon Bio-Supp. Centre, Tokyo, Japan) was diluted in 45 mL of Dulbecco’s phosphate-buffered saline (DPBS) to obtain a total volume of 50 mL. The cell suspension was centrifuged at 500× g for 5 min, and the supernatant was discarded. This procedure was repeated three times, and DPBS was added to the precipitate, and the red blood cell (RBC) count was adjusted to ~5×10^8 cells/mL. The RBC suspension (500 µL) was placed into a 1.5 mL storage tube, and the reagent was administered and incubated for 30 min on ice. […] The cell suspension was then centrifuged at 500× g for 5 min. The haemoglobin concentration in the supernatant was measured by measuring the UV absorbance at 540 nm.

Data set [6] relates to PC-3 cells. Kind of data set: DRAQ7 membrane permeability assay in PC-3 cells. The data set is classed as cell-based. The following applies: Homo sapiens; for IC50: 1 h (Table 1); for EC50: DRAQ7 membrane-impermeable dye, read-out: EC50 of DRAQ7 nucleus staining (DRAQ7 positive cells). How it is done:
(§2) PC-3 cells were seeded (4 × 10^3 cells/well) in ibidi 8-well μ-Slide (Ibidi, Munich, Germany) in DMEM supplemented with 10% FBS and cultured for 24 h. Then, DRAQ7 (DRAQ7 DROP & GO; Biostatus, Shepshed, UK) and the tested compounds were added to the cells. After an appropriate time, the cells were imaged using a BZ-X710 fluorescence microscope (Keyence, Tokyo, Japan). For zebrafish embryos, 48 hpf embryos were treated with DRAQ7 and the tested compounds and imaged using a BZ-X710 fluorescent microscope.

Data set [7] deals with 48 hpf zebrafish. Briefly: DRAQ7 membrane permeability assay in zebrafish. The following applies: for Lethality to zebrafish embryos at high concentration: 60 min; for DRAQ7 signals in zebrafish (cell membrane permeability): 30 min of exposure, mainly tail regions. The format is in vivo, zebrafish (Danio rerio). As to the method: as §2
Data set [8] has as its system caspase-3 and caspase-7. Kind of data set: Caspase 3/7 assay (Caspase-Glo 3/7) in PC-3 cells. The format is cell-based, human. Conditions: for Caspase 3/7 activities in PC-3 cells: 3 or 6 h; for Induction of caspase-3 and caspase-7 activities: PC-3 cells, sub-IC50 concentrations. As to the method:
PC-3 cells were seeded (3 × 10^3 cells/well) in a 96-well plate in DMEM containing 10% FBS for 24 h and treated with the test compounds. Caspase-Glo 3/7 assay (Promega) was performed according to the manufacturer’s instructions. Luminescence signals were measured using a Victor2 microplate reader (PerkinElmer).

In the case of `C/C=C(\C)C(=O)O[C@H]1[C@H](OC(C)=O)[C@@]2(CO)C(CC1(C)C)C1=CCC3[C@@]4(C)CC[C@H](O[C@@H]5O[C@H](C(=O)O)[C@@H](O[C@@H]6O[C@H](CO)[C@H](O)[C@H](O)[C@H]6O[C@@H]6O[C@@H](C)[C@H](O)[C@@H](O)[C@H]6O)[C@H](O)[C@H]5O[C@@H]5O[C@H](CO)[C@@H](O)[C@H](O)[C@H]5O)C(C)(C)C4CC[C@@]3(C)[C@]1(C)C[C@H]2O` (stereo partly drawn) [Jegosaponin A, jegosaponin A], the “Suppression of viability of PC-3 cells” value in data set [1] is “suppress viability”. Moreover, the CC50 in data set [1] is 700 nM. Besides, the “Suppression of viability of DU145 cells” value in data set [2] is recorded as “suppress viability”; in data set [2] (listed as jegosaponin A), “suppressed the viability”. Further, the “Suppression of viability of LNCaP cells” value is reported as “suppress viability” in data set [3] and “suppressed the viability” in data set [3] (listed as jegosaponin A). In addition, in data set [4], the LC50 (as a rule, the concentration that kills 50% of the test population) at 120 h is 500 nM. The LC50 at 24 h in data set [4] stood at 700 nM. The EC50 in data set [5] was determined as 2.1 µM; in data set [6], 3.4 ± 0.6 µM. Besides, in data set [6], the IC50 (commonly the concentration that gives 50% inhibition) is 3.4 µM. Besides, the “Lethality to zebrafish embryos at high concentration” value in data set [7] (6 μM) is “killed all embryos”. The “DRAQ7 signals in zebrafish (cell membrane permeability)” value in data set [7] is listed as “apparently increased DRAQ7 signals”. Besides, the “Caspase 3/7 activities in PC-3 cells” value in data set [8] (1.5 µM) is “do not affect caspase 3/7 activities”. In addition, the “Induction of caspase-3 and caspase-7 activities” value in data set [8] is reported as “no apparent induction of their activities”.

For the molecule `C/C=C(\C)C(=O)O[C@H]1[C@H](O)[C@@]2(COC(C)=O)C(CC1(C)C)C1=CCC3[C@@]4(C)CC[C@H](O[C@@H]5O[C@H](C(=O)O)[C@@H](O[C@@H]6O[C@H](CO)[C@H](O)[C@H](O)[C@H]6O[C@@H]6O[C@@H](C)[C@H](O)[C@@H](O)[C@H]6O)[C@H](O)[C@H]5O[C@@H]5O[C@H](CO)[C@@H](O)[C@H](O)[C@H]5O)C(C)(C)C4CC[C@@]3(C)[C@]1(C)C[C@H]2O` (stereo partly drawn) [Jegosaponin B, jegosaponin B], in data set [1], the “Suppression of viability of PC-3 cells” value is “suppress viability” and the CC50 worked out at 1600 nM. In data set [2] (listed as B), the “Suppression of viability of DU145 cells” value is on record as “suppress viability”. The “Suppression of viability of DU145 cells” value in data set [2] (listed as jegosaponin B) is “suppressed the viability”. Also, in data set [3] (listed as B), the “Suppression of viability of LNCaP cells” value is “suppress viability”. In addition, the “Suppression of viability of LNCaP cells” value in data set [3] (listed as jegosaponin B) is “suppressed the viability”. In data set [4], this molecule came in with an LC50 at 120 h of 1300 nM and an LC50 at 24 h of 1400 nM. Besides, in data set [5], the EC50 worked out at 20.2 µM. Besides, in data set [6], half-maximal inhibition (IC50) required 6 µM and the EC50 was determined as 6 ± 1.2 µM. Besides, in data set [7] (12 μM), the “Lethality to zebrafish embryos at high concentration” value is on record as “killed all embryos”. For the same molecule, the “DRAQ7 signals in zebrafish (cell membrane permeability)” value in data set [7] was “apparently increased DRAQ7 signals”. The “Caspase 3/7 activities in PC-3 cells” value in data set [8] (0.5 µM) is listed as “do not affect caspase 3/7 activities”. Further, the “Induction of caspase-3 and caspase-7 activities” value in data set [8] is “no apparent induction of their activities”.
